Several values for one entry are separate records, joined by “and”; a condition that tells them apart may be missing. Identical values can stand only once. Inconclusive results and toxic doses are left out.

The experiment concerns BDF1 mice, P388 leukemia ip, median survival T/C. Kind of experiment: NCI In Vivo Anticancer Drug Screen. Data for tumor model P388 Leukemia (intraperitoneal) in B6D2F1 (BDF1) mice. Conditions: endpoint: median survival time, higher = longer survival. In outline:
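Compound-treated tumour-bearing mice were compared with vehicle-treated controls. Survival was recorded, and the value is the treated-group measurement divided by the control-group measurement (T/C).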

Where [1] appears, read: dose: 25.0 mg/kg/injection, schedule: Q01DX009 (ip), vehicle: saline with Tween-80.
Setting [2] is: dose: 50.0 mg/kg/injection, schedule: Q01DX009 (ip), vehicle: saline with Tween-80.
Setting [3] is: dose: 100.0 mg/kg/injection, schedule: Q01DX009 (ip), vehicle: saline with Tween-80.
The mark [4] stands for this setting: dose: 100.0 mg/kg/injection, schedule: Q04DX003 (ip), vehicle: saline with Tween-80.
[5] abbreviates: dose: 200.0 mg/kg/injection, schedule: Q04DX003 (ip), vehicle: saline with Tween-80.
Setting [6] is: dose: 200.0 mg/kg/injection, schedule: Q01DX009 (ip), vehicle: saline with Tween-80.
The mark [7] stands for this setting: dose: 100.0 mg/kg/injection, schedule: Q01DX009 (ip), vehicle: Klucel (hydroxypropylcellulose) (HPC).
The mark [8] stands for this setting: dose: 100.0 mg/kg/injection, schedule: Q04DX003 (ip), vehicle: Klucel (hydroxypropylcellulose) (HPC).
Setting [9] is: dose: 200.0 mg/kg/injection, schedule: Q01DX009 (ip), vehicle: Klucel (hydroxypropylcellulose) (HPC).
The mark [10] stands for this setting: dose: 200.0 mg/kg/injection, schedule: Q04DX003 (ip), vehicle: Klucel (hydroxypropylcellulose) (HPC).
Where [11] appears, read: dose: 400.0 mg/kg/injection, schedule: Q04DX003 (ip), vehicle: Klucel (hydroxypropylcellulose) (HPC).
The mark [12] stands for this setting: dose: 12.5 mg/kg/injection, schedule: Q01DX009 (ip), vehicle: saline with Tween-80.
[13] abbreviates: dose: 50.0 mg/kg/injection, schedule: Q01DX005 (ip), vehicle: saline with Tween-80.
The mark [14] stands for this setting: dose: 100.0 mg/kg/injection, schedule: Q01DX005 (ip), vehicle: saline with Tween-80.
[15] abbreviates: dose: 200.0 mg/kg/injection, schedule: Q01DX005 (ip), vehicle: saline with Tween-80.
[16] abbreviates: dose: 100.0 mg/kg/injection, schedule: Q04DX003 (ip), vehicle: saline sonified.
Where [17] appears, read: dose: 200.0 mg/kg/injection, schedule: Q04DX003 (ip), vehicle: saline sonified.
The mark [18] stands for this setting: dose: 400.0 mg/kg/injection, schedule: Q04DX003 (ip), vehicle: saline sonified.

In the case of `Nc1ccn(CC(=O)c2cccs2)c(=O)n1`, the T/C by setting is: under setting [1], 100 % of control; under setting [2], 115 % of control; under setting [3], 100 % of control; under setting [4], 90 % of control; under setting [5], 95 % of control.

`Cc1csc(NC(O)C(Cl)(Cl)Cl)n1` (stereo not drawn): the T/C is, setting by setting: under setting [2], 98 % of control; under setting [3], 106 % of control; under setting [6], 101 % of control.

Regarding `c1ccc2c(c1)C1CC(N3CCCCC3)C2c2ccccc21` (stereo not drawn), the T/C is 90 % of control under setting [7]; 95 % of control under setting [8]; 86 % of control under setting [9]; 100 % of control under setting [10]; 90 % of control (dose: 400.0 mg/kg/injection, schedule: Q01DX009 (ip), vehicle: Klucel (hydroxypropylcellulose) (HPC)); 91 % of control under setting [11].

With `COC(CNC(=O)Nc1cccnc1)[CH2][Hg][Cl]` (stereo not drawn), the T/C runs as follows: under setting [12], 90 % of control; under setting [1], 104 % of control; under setting [2], 100 % of control.

In the case of `OC[C@@H](O)[C@@H](O)CO`, the T/C reads like this: (dose: 100.0 mg/kg/injection, schedule: Q01DX010 (ip), vehicle: saline) 90 % of control; (dose: 400.0 mg/kg/injection, schedule: Q01DX010 (ip), vehicle: saline) 110 % of control.

For `CCCCCCCCC(=O)CCC`, the T/C is 100 % of control (dose: 50.0 mg/kg/injection, schedule: Q04DX003 (ip), vehicle: Klucel (hydroxypropylcellulose) (HPC)); 109 % of control under setting [8]; 100 % of control under setting [10]; 87 % of control under setting [11].

`CC1(C)O[C@]2(C)CC[C@@H]1[C@@H](O)[C@@H]2N1CCCCC1`: the T/C by setting is: under setting [13], 109 % of control; under setting [14], 111 % of control; under setting [15], 97 % of control.

Take `NC1=CC(=O)c2ccccc2C1=O`: the T/C was 101 % of control (dose: 6.25 mg/kg/injection, schedule: Q01DX009 (ip), vehicle: saline with Tween-80); 113 % of control under setting [12]; 103 % of control under setting [1]; 103 % of control under setting [2].

On to `CCCCS(=O)(=O)OCCCCOS(=O)(=O)CCCC`, for which the T/C is, setting by setting: under setting [3], 113 % of control; under setting [4], 104 % of control; under setting [6], 118 % of control; under setting [5], 109 % of control; (dose: 264.0 mg/kg/injection, schedule: Q04DX003 (ip), vehicle: saline with Tween-80) 91 % of control; (dose: 400.0 mg/kg/injection, schedule: Q01DX009 (ip), vehicle: saline with Tween-80) 122 % of control. Further, the T/C by setting is: (dose: 400.0 mg/kg/injection, schedule: Q04DX003 (ip), vehicle: saline with Tween-80) 95 % of control; (dose: 600.0 mg/kg/injection, schedule: Q04DX003 (ip), vehicle: saline with Tween-80) 104 % of control.

With `COc1cc(/C=C2\SC(=S)N(CCCN3CCOCC3)C2=O)ccc1O`, the T/C runs as follows: (dose: 12.5 mg/kg/injection, schedule: Q01DX009 (ip), vehicle: suspension in saline) 86 % of control; (dose: 25.0 mg/kg/injection, schedule: Q01DX009 (ip), vehicle: suspension in saline) 101 % of control; (dose: 50.0 mg/kg/injection, schedule: Q01DX009 (ip), vehicle: suspension in saline) 99 % of control.

Take `CCNC(=O)OCc1cnc(C)c(OC(=O)NCC)c1COC(=O)NCC`: the T/C is 98 % of control (dose: 25.0 mg/kg/injection, schedule: Q01DX005 (ip), vehicle: saline with Tween-80); 110 % of control under setting [13]; 100 % of control under setting [14]; 101 % of control under setting [15].

In the case of `O=C(c1ccc(Cl)cc1)c1cccc[n+]1Cc1ccccc1`, the T/C is 100 % of control (dose: 0.37 mg/kg/injection, schedule: Q01DX009 (ip), vehicle: Klucel (hydroxypropylcellulose) (HPC)); 104 % of control (dose: 18.75 mg/kg/injection, schedule: Q01DX009 (ip), vehicle: Klucel (hydroxypropylcellulose) (HPC)); 100 % of control (dose: 28.12 mg/kg/injection, schedule: Q04DX003 (ip), vehicle: Klucel (hydroxypropylcellulose) (HPC)); 109 % of control (dose: 37.5 mg/kg/injection, schedule: Q01DX009 (ip), vehicle: Klucel (hydroxypropylcellulose) (HPC)); 95 % of control (dose: 56.25 mg/kg/injection, schedule: Q04DX003 (ip), vehicle: Klucel (hydroxypropylcellulose) (HPC)); 100 % of control (dose: 112.5 mg/kg/injection, schedule: Q04DX003 (ip), vehicle: Klucel (hydroxypropylcellulose) (HPC)).

For `CCOC(=O)C[n+]1c(C)sc2ccccc21`, the T/C by setting is: (dose: 50.0 mg/kg/injection, schedule: Q01DX005 (ip), vehicle: saline) 99 % of control; (dose: 100.0 mg/kg/injection, schedule: Q01DX005 (ip), vehicle: saline) 92 % of control; (dose: 200.0 mg/kg/injection, schedule: Q01DX005 (ip), vehicle: saline) 101 % of control.

Take `CCOC(=O)c1c(C)c2c(n1C)CCc1cn[nH]c1-2`: the T/C was 103 % of control (dose: 50.0 mg/kg/injection, schedule: Q01DX009 (ip), vehicle: Klucel (hydroxypropylcellulose) (HPC)); 120 % of control under setting [7]; 106 % of control under setting [9].

As to `C/C(=N\OCc1cc2c(cc1Cl)OCO2)C(=O)O`, the T/C under setting [16] was 113 % of control, the T/C under setting [17] was 109 % of control and the T/C under setting [18] is 109 % of control.

Consider `Nc1nc(SCc2ccccc2)c2ncn(C3OC(CO)CC3O)c2n1` (stereo not drawn), for which the T/C is 100 % of control (dose: 100.0 mg/kg/injection, schedule: Q01DX009 (ip), vehicle: saline sonified); 109 % of control under setting [16]; 100 % of control (dose: 200.0 mg/kg/injection, schedule: Q01DX009 (ip), vehicle: saline sonified); 109 % of control under setting [17]; 113 % of control (dose: 400.0 mg/kg/injection, schedule: Q01DX009 (ip), vehicle: saline sonified); 109 % of control under setting [18].

Take `Cc1cc(C)c(CCO)c(C)c1`: the T/C is 113 % of control (dose: 0.37 mg/kg/injection, schedule: Q01DX009 (ip), vehicle: DMSO); 113 % of control (dose: 0.75 mg/kg/injection, schedule: Q01DX009 (ip), vehicle: DMSO); 95 % of control (dose: 1.5 mg/kg/injection, schedule: Q01DX009 (ip), vehicle: DMSO); 88 % of control and 109 % of control (dose: 3.0 mg/kg/injection, schedule: Q01DX009 (ip), vehicle: DMSO); 92 % of control (dose: 12.0 mg/kg/injection, schedule: Q01DX009 (ip), vehicle: DMSO); 88 % of control (dose: 25.0 mg/kg/injection, schedule: Q04DX003 (ip), vehicle: DMSO). The T/C (dose: 50.0 mg/kg/injection, schedule: Q04DX003 (ip), vehicle: DMSO) is 88 % of control.

Take `Clc1cc(N2CC2)nc(N2CC2)n1`: the T/C by setting is: (dose: 0.11 mg/kg/injection, schedule: Q01DX009 (ip), vehicle: saline) 90 % of control; (dose: 0.17 mg/kg/injection, schedule: Q01DX009 (ip), vehicle: saline) 95 % of control; (dose: 0.27 mg/kg/injection, schedule: Q01DX009 (ip), vehicle: saline) 275 % of control; (dose: 0.4 mg/kg/injection, schedule: Q01DX009 (ip), vehicle: saline) 295 % of control; (dose: 0.62 mg/kg/injection, schedule: Q01DX009 (ip), vehicle: saline) 157 % of control; (dose: 1.25 mg/kg/injection, schedule: Q01DX009 (ip), vehicle: saline) 230 % of control. Further, the T/C is, setting by setting: (dose: 1.56 mg/kg/injection, schedule: Q01DX001 (ip), vehicle: saline) 109 % of control; (dose: 3.12 mg/kg/injection, schedule: Q04DX003 (ip), vehicle: saline) 104 % of control; (dose: 6.5 mg/kg/injection, schedule: Q01DX001 (ip), vehicle: saline) 163 % of control; (dose: 6.5 mg/kg/injection, schedule: Q04DX003 (ip), vehicle: saline) 168 % of control.
